# In ChEMBL document CHEMBL5042509, “Benzophenone Glucosides and B-Type Proanthocyanidin Dimers from Zambian Cassia abbreviata and Their Trypanocidal Activities” (J Nat Prod, 2022):
# Tests used:
# [1] = test system: Trypanosoma brucei rhodesiense; experiment: Trypanocidal activity against Trypanosoma brucei rhodesiense assessed as parasite growth inhibition at 50 ug/ml incubated for 3 days by Celltiter-Glo luminescence assay; assay type: functional; parameters: scale not given: the % may be the effect or the level left; details: dose 50 µg/ml; time 3 day
# Trypanosoma evansi [2] = experiment: Trypanocidal activity against Trypanosoma evansi assessed as parasite growth inhibition at 50 ug/ml incubated for 3 days by Celltiter-Glo luminescence assay; assay type: functional; parameters: scale not given: the % may be the effect or the level left; details: dose 50 µg/ml; time 3 day
# [3] = test system: Trypanosoma brucei rhodesiense; experiment: Trypanocidal activity against Trypanosoma brucei rhodesiense assessed as parasite growth inhibition incubated for 3 days by Celltiter-Glo luminescence assay; assay type: functional, organism-based; details: 72 h
# [4] = test system: Trypanosoma brucei brucei; experiment: Trypanocidal activity against Trypanosoma brucei brucei GUTat3.1 assessed as parasite growth inhibition at 50 ug/ml incubated for 3 days by Celltiter-Glo luminescence assay; assay type: functional; parameters: scale not given: the % may be the effect or the level left; details: dose 50 µg/ml; time 3 day
# Trypanosoma evansi [5] = experiment: Trypanocidal activity against Trypanosoma evansi assessed as parasite growth inhibition incubated for 3 days by Celltiter-Glo luminescence assay; assay type: functional, organism-based; details: 72 h
# [6] = test system: Trypanosoma brucei brucei; experiment: Trypanocidal activity against Trypanosoma brucei brucei GUTat3.1 assessed as parasite growth inhibition incubated for 3 days by Celltiter-Glo luminescence assay; assay type: functional, organism-based; details: GUTat3.1, 72 h
# [7] = test system: Trypanosoma brucei rhodesiense; experiment: Trypanocidal activity against Trypanosoma brucei rhodesiense IL1501 assessed as parasite growth inhibition incubated for 3 days by Celltiter-Glo luminescence assay; assay type: functional, organism-based; details: IL1501, 72 h
# [8] = test system: Trypanosoma brucei rhodesiense; experiment: Trypanocidal activity against Trypanosoma brucei rhodesiense IL1501 assessed as parasite growth inhibition at 50 ug/ml incubated for 3 days by Celltiter-Glo luminescence assay; assay type: functional; parameters: scale not given: the % may be the effect or the level left; details: dose 50 µg/ml; time 3 day
# [9] = test system: Trypanosoma brucei gambiense; experiment: Trypanocidal activity against Trypanosoma brucei gambiense IL1922 assessed as parasite growth inhibition incubated for 3 days by Celltiter-Glo luminescence assay; assay type: functional, organism-based; details: IL1922, 72 h
# Trypanosoma congolense [10] = experiment: Trypanocidal activity against Trypanosoma congolense IL3000 assessed as parasite growth inhibition incubated for 3 days by Celltiter-Glo luminescence assay; details: IL3000, 72 h
# [11] = test system: Trypanosoma brucei gambiense; experiment: Trypanocidal activity against Trypanosoma brucei gambiense IL1922 assessed as parasite growth inhibition at 50 ug/ml incubated for 3 days by Celltiter-Glo luminescence assay; assay type: functional; parameters: scale not given: the % may be the effect or the level left; details: dose 50 µg/ml; time 3 day
# Trypanosoma congolense [12] = experiment: Trypanocidal activity against Trypanosoma congolense IL3000 assessed as parasite growth inhibition at 50 ug/ml incubated for 3 days by Celltiter-Glo luminescence assay; parameters: scale not given: the % may be the effect or the level left; details: dose 50 µg/ml; time 3 day
SMILES,Activity [1] [%],Activity (Trypanosoma evansi [2]) [%],IC50 [3] [µg/mL],Activity [4] [%],IC50 (Trypanosoma evansi [5]) [µg/mL],IC50 [6] [µg/mL],IC50 [7] [µg/mL],Activity [8] [%],IC50 [9] [µg/mL],IC50 (Trypanosoma congolense [10]) [µg/mL],Activity [11] [%],Activity (Trypanosoma congolense [12]) [%]
Oc1ccc([C@H]2Oc3cc(O)cc(O)c3C[C@@H]2O)cc1,99.71,99.7,4.03,98.54,14.4,38.6,45.7,96.07,46.4,28.3,90.28,99.57
Oc1ccc2c(c1)O[C@H](c1ccc(O)c(O)c1)[C@@H](O)[C@@H]2c1c(O)cc(O)c2c1O[C@H](c1cc(O)c(O)c(O)c1)[C@H](O)C2,99.93,57.8,10.9,10.18,12.2,,,24.11,,13.1,14.68,72.01
N=C(N)c1ccc(/N=N/Nc2ccc(C(=N)N)cc2)cc1 [DIMINAZENE],,,0.081,,0.0033,0.02,0.013,,0.0066,0.065,,
"NCCC[C@](N)(C(=O)O)C(F)F [EFLORNITHINE, (S)-]",,,6.5,,10.4,7.03,8.38,,6.68,2.94,,
Oc1cc(O)c2c(c1)O[C@H](c1cc(O)c(O)c(O)c1)[C@H](O)C2 [EPIGALLOCATECHIN],100.06,99.99,1.62,62.43,1.58,,,66.56,,2.38,85.1,99.94
N=C(N)c1ccc(OCCCCCOc2ccc(C(=N)N)cc2)cc1 [PENTAMIDINE],,,0.0017,,0.00033,0.014,0.0099,,0.0049,0.11,,
Cc1ccc(C(=O)Nc2ccc(S(=O)(=O)O)c3cc(S(=O)(=O)O)cc(S(=O)(=O)O)c23)cc1NC(=O)c1cccc(NC(=O)Nc2cccc(C(=O)Nc3cc(C(=O)Nc4ccc(S(=O)(=O)O)c5cc(S(=O)(=O)O)cc(S(=O)(=O)O)c45)ccc3C)c2)c1 [SURAMIN],,,0.094,,0.54,0.094,0.11,,0.092,10.2,,
